Data taken from patent US20230066946A1, “1,5-DIPHENYLPYRAZOLYL-3-OXYALKYL ACIDS AND 1-PHENYL-5-THIENYLPYRAZOLYL-3-OXYALKYL ACIDS AND THE USE THEREOF FOR CONTROL OF UNWANTED PLANT GROWTH” (Bayer Aktiengesellschaft, priority 2019, published 2023).

Tests used:
MATIN = assay: Post-emergence herbicidal action against MATIN; type: in vivo, Matricaria inodora; conditions: 1280 g/ha, visual rating about 3 weeks after treatment
Experimental: (§1) [table] Seeds of mono- and dicotyledonous weed plants are placed in plastic pots in sandy loam soil (twin sowing with one species each of mono- or dicotyledonous weed plants per pot), covered with soil and cultivated in a greenhouse under controlled growth conditions. 2 to 3 weeks after sowing, the test plants are treated at the one-leaf stage. The compounds of the invention, formulated in the form of wettable powders (WP) or as emulsion concentrates (EC), are applied to the green parts of the plants as aqueous suspension or emulsion with addition of 0.5% additive at a water application rate equivalent to 600 litres per hectare. After the test plants have been kept in the greenhouse under optimum growth conditions for about 3 weeks, the activity of the preparations is rated visually in comparison to untreated controls. For example, 100% activity=the plants have died, 0% activity=like control plants. Tables 5.1-5.16 below show the effects of selected compounds of the general formula (I) according to Tables 1 to 3 on various harmful plants at an application rate corresponding to 1280 or 320 g/ha, which have been obtained by the aforementioned experimental method.

AMARE [1] = assay: Post-emergence herbicidal action against AMARE; type: in vivo, Amaranthus retroflexus; conditions: 1280 g/ha, visual rating about 3 weeks after treatment
Experimental: as §1

SETVI [2] = assay: Pre-emergence herbicidal action against SETVI; type: in vivo, Setaria viridis; conditions: 1280 g/ha, scored visually after about 3 weeks vs untreated controls
Text: (§2) Seeds of mono- and dicotyledonous weed plants are placed in plastic pots in sandy loam soil (doubly sown with one species each of mono- or dicotyledonous weed plants per pot) and covered with soil. The compounds of the invention, formulated in the form of wettable powders (WP) or as emulsion concentrates (EC), are then applied onto the surface of the covering soil as aqueous suspension or emulsion with addition of 0.5% additive at a water application rate equivalent to 600 litres per hectare. After the treatment, the pots are placed in a greenhouse and kept under good growth conditions for the trial plants. After about 3 weeks, the effect of the preparations is scored visually in comparison with untreated controls as percentages. For example, 100% activity=the plants have died, 0% activity=like control plants. [table] Tables 4.1-4.15 below show the effects of selected compounds of the general formula (I) according to Tables 1 to 3 on various harmful plants at an application rate corresponding to 1280 or 320 g/ha, which have been obtained by the aforementioned experimental method.

AMARE [3] = assay: Pre-emergence herbicidal action against AMARE; type: in vivo, Amaranthus retroflexus; conditions: 1280 g/ha, scored visually after about 3 weeks vs untreated controls
Text: as §2

STEME [4] = assay: Pre-emergence herbicidal action against STEME; type: in vivo, Stellaria media; conditions: 1280 g/ha, scored visually after about 3 weeks vs untreated controls
Text: as §2

ECHCG [5] = assay: Pre-emergence herbicidal action against ECHCG; type: in vivo, Echinochloa crus-galli; conditions: scored visually after about 3 weeks vs untreated controls, 100% = plants have died, 0% = like control plants
Text: as §2

SETVI [6] = assay: Post-emergence herbicidal action against SETVI; type: in vivo, Setaria viridis; conditions: 1280 g/ha, post-emergence at one-leaf stage, rated visually after about 3 weeks vs untreated controls
Experimental: as §1

STEME [7] = assay: Post-emergence herbicidal action against STEME; type: in vivo, Stellaria media; conditions: 1280 g/ha, visual rating about 3 weeks after treatment
Experimental: as §1

ECHCG [8] = assay: Post-emergence herbicidal action against ECHCG; type: in vivo, Echinochloa crus-galli; conditions: 1280 g/ha, post-emergence at one-leaf stage, rated visually after about 3 weeks vs untreated controls
Experimental: as §1

| Compound | Post-emergence action against MATIN in % (MATIN) [%] | Post-emergence action against AMARE in % (AMARE [1]) [%] | Pre-emergence action against SETVI in % (SETVI [2]) [%] | Pre-emergence action against AMARE in % (AMARE [3]) [%] | Pre-emergence action against STEME in % (STEME [4]) [%] | Pre-emergence action at 1280 g/ha against ECHCG in % (ECHCG [5]) [%] | Post-emergence action against SETVI in % (SETVI [6]) [%] | Post-emergence action against STEME in % (STEME [7]) [%] | Post-emergence action against ECHCG in % (ECHCG [8]) [%] |
| --- | --- | --- | --- | --- | --- | --- | --- | --- | --- |
| CCOC(=O)COc1nn(-c2ccc(F)cc2)c(-c2ccc(F)cc2)c1Br [I-076] | 90 | 100 | 100 | 100 | 100 | 90 | – | – | – |
| C=CCNC(=O)COc1nn(-c2c(F)cccc2F)c(-c2ccc(F)c(F)c2)c1Br [III-054] | – | – | 90 | 90 | – | – | 100 | – | – |
| CCOC(=O)COc1nn(-c2c(F)cccc2F)c(-c2ccc(F)c(F)c2)c1Cl [I-142] | 90 | – | 100 | 100 | 100 | 100 | – | 100 | – |
| CC(C)(Oc1nn(-c2ccccc2)c(-c2ccc(F)cc2)c1Br)C(=O)O [I-140] | – | – | 100 | 90 | 100 | 90 | – | 100 | – |
| O=C(O)COc1nn(-c2ccc(F)cc2)c(-c2cccc(F)c2)c1Br [I-119] | 90 | 100 | 100 | 100 | 100 | – | – | 90 | – |
| C#CCNC(=O)COc1nn(-c2ccc(F)cc2)c(-c2cccc(F)c2)c1Cl [III-023] | – | – | 100 | 90 | 100 | 90 | 100 | – | – |
| CC(Oc1nn(-c2ccccc2F)c(-c2ccc(F)c(F)c2)c1Br)C(=O)O (stereo not drawn) [I-168] | 90 | – | – | 100 | 100 | 90 | – | 100 | – |
| COC(=O)CCNC(=O)COc1nn(-c2ccc(F)cc2)c(-c2cccc(F)c2)c1Cl [III-026] | 90 | 90 | 90 | 90 | – | – | 100 | – | – |
| O=C(COc1nn(-c2ccccc2)c(-c2ccc(F)cc2)c1Br)OCc1cccc(F)c1 [I-111] | 90 | 100 | 90 | – | 100 | 100 | – | 90 | – |
| COC(=O)C(C)Oc1nn(-c2ccccc2)c(-c2ccc(F)cc2)c1Cl (stereo not drawn) [I-145] | 90 | – | 100 | 90 | 100 | 100 | 90 | 100 | – |
| C=CCNC(=O)COc1nn(-c2ccccc2F)c(-c2ccc(F)c(F)c2)c1Cl [III-067] | 90 | – | 100 | 100 | 90 | 100 | 100 | 100 | – |
| O=C(COc1nn(-c2ccc(F)cc2)c(-c2cccc(F)c2)c1Br)OCc1cccc(F)c1 [I-123] | 90 | 90 | 90 | 100 | 100 | – | – | – | 90 |
| C=CCNC(=O)COc1nn(-c2ccccc2F)c(-c2ccc(F)c(F)c2)c1[N+](=O)[O-] [III-066] | – | – | 90 | 90 | 90 | – | 100 | – | – |
| CCOC(=O)COc1nn(-c2c(F)cccc2F)c(-c2ccc(F)c(F)c2)c1Br [I-134] | – | 90 | 100 | 100 | 100 | 100 | – | 100 | – |
| COC(=O)COc1nn(-c2cccc(F)c2)c(-c2ccccc2)c1Br [I-114] | 90 | 100 | 100 | 100 | 100 | 90 | – | – | – |
| CCOC(=O)COc1nn(-c2ccccc2F)c(-c2ccc(F)c(F)c2)c1Cl [I-131] | 90 | – | 100 | 100 | – | 100 | – | 90 | – |
| COC(=O)COc1nn(-c2cccc(F)c2)c(-c2ccccc2)c1[N+](=O)[O-] [I-122] | – | – | – | 100 | – | 100 | – | – | – |
| CCOC(=O)COc1nn(-c2ccccc2F)c(-c2ccc(F)c(F)c2)c1Br [I-133] | 90 | 90 | 100 | 100 | 100 | 90 | – | 100 | – |
| O=C(COc1nn(-c2ccc(F)cc2)c(-c2cccc(F)c2)c1Cl)NC1CC1 [III-024] | – | – | 100 | 100 | 100 | 90 | – | – | – |
| CCOC(=O)CCNC(=O)COc1nn(-c2cccc(F)c2)c(-c2ccccc2)c1Br [III-033] | – | 90 | 100 | 90 | 100 | 90 | 100 | – | – |
| C=C(C)CNC(=O)COc1nn(-c2ccccc2F)c(-c2ccccc2)c1Br [III-001] | – | 100 | 100 | – | 100 | 90 | 100 | – | – |
| CCOC(=O)COc1nn(-c2ccccc2)c(-c2ccc(F)cc2F)c1Br [I-085] | 90 | 100 | 100 | 100 | – | 100 | – | 100 | – |
| O=C(COc1nn(-c2ccccc2)c(-c2ccc(F)cc2)c1Br)NCC1CC1 [III-005] | – | – | 100 | 90 | 100 | 100 | – | – | – |
| C=CCNC(=O)COc1nn(-c2c(F)cccc2F)c(-c2ccc(F)c(F)c2)c1Cl [III-068] | 90 | – | 100 | 90 | 90 | 100 | 90 | – | – |
| CCOC(=O)COc1nn(-c2ccccc2OC)c(-c2ccc(F)cc2)c1Br [I-089] | – | 100 | – | – | – | – | 100 | – | – |
| C#CCNC(=O)COc1nn(-c2ccc(F)cc2)c(-c2cccc(F)c2)c1Br [III-016] | – | 90 | 100 | 100 | 100 | 100 | – | – | – |
